Source: patent US8507219B2, “Method of treating inflammation with statins” (MUSC Foundation for Research Development, priority 1997, dated 2013)

Tests used:
[1] = test system: iNOS activity in rat primary astrocytes; assay: iNOS activity (arginine to citrulline) in homogenates of treated rat primary astrocytes; assay type: cell-based; details: 10 μM
Method: NOS activity was measured directly by production of L-[2,3,4,5-^3H]citrulline from L-[2,3,4,5-^3H] arginine (Feinstein et al., 1994a). […] Assays were carried out for 30 to 40 min and the production of L-[2,3,4,5-^3H] citrulline was linear. The reactions were stopped by addition of 800 μl of ice-cold 20 mM HEPES (pH 5.5) followed by addition of 2 ml of Dowex-50W equilibrated in the same buffer. The samples were then centrifuged and the concentration of L-[^3H]citrulline was determined in the supernatant by liquid scintillation counting.
Dose Dependence of Forskolin Inhibition of the LPS Stimulation of iNOS Astrocytes were incubated with different concentrations of forskolin 15 min before the addition of 1 μg/ml LPS, and after 24 h the iNOS activity was measured as nitrite concentrations in the supernatant and conversion of arginine to citrulline in the cellular homogenates (FIG. 1). The level of nitrite and iNOS activity were inhibited to a similar degree at all the concentrations of forskolin tested. […] . […] This may be due to the fact that PKA was already completely activated in extracts of cells incubated with 10 μM forskolin. The PKA activity increased with the increase in forskolin concentration. The reciprocal relationship of production of NO and iNOS activity with PKA activity supports the conclusion that PKA plays a pivotal role in the regulation of iNOS expression in astrocytes.

[2] = test system: control human skin fibroblasts; assay: β-oxidation of lignoceric acid in control human skin fibroblasts; assay type: cell-based
[3] = test system: cultured skin fibroblasts of X-ALD; assay: VLCFA ratios (C26:0/C22:0, C24:0/C22:0) in X-ALD skin fibroblasts; assay type: cell-based, human; details: about 15 days of treatment
[4] = test system: NF-kβ; assay type: cell-based, rat; details: LPS 1.0 μg/ml, 1 h
Method: Preparation of Nuclear Extracts and Electrophoretic Mobility shift assay Nuclear extracts from stimulated or unstimulated astrocytes (1×10^7 cells) were prepared using the method of Dignam et al. (1983) with slight modification. Cells were harvested, washed twice with ice-cold phosphate-buffered saline and lysed in 400 μl of buffer A (10 mM HEPES, pH 7.9, 10 mM KCl, 2 mM MgCl2, 0.5 mM DTT, 1 mM PMSF, 5 μg/ml aprotinin, 5 μg/ml pepstatin A, and 5 μg/ml leupeptin (Sigma, St. Louis, Mo.) containing 0.1% Nondet P-40 for 15 min on ice, vortexed vigorously for 15 s, and centrifuged at 14,000 rpm for 30 s. The pelleted nuclei were resuspended in 40 μl of buffer B (20 mM HEPES, pH 7.9, 25% (v/v) glycerol, 0.42 M NaCl, 1.5 mM MgCl2, 0.2 mM EDTA, 0.5 mM DTT, 1 mM PMSF, 5 μg/ml aprotinin, 5 μg/ml pepstatin A, and 5 μg/ml leupeptin). After 30 min on ice, lysates were centrifuged at 14,000 rpm for 10 min. Supernatants containing the nuclear proteins were diluted with 20 μl of modified buffer C (20 mM HEPES, pH 7.9, 20% (v/v) glycerol, 0.05 M KCl, 0.2 mM EDTA, 0.5 mM DTT, and 0.5 mM PMSF) and stored at −70° C. until use. Nuclear extracts were used for the electrophoretic mobility shift assay using the NF-kβ DNA binding protein detection system kit (GIBCO/BRL), according to the manufacturer's protocol.
Preparation of nuclear extracts and electrophoretic mobility shift assay Nuclear extracts from stimulated or unstimulated astrocytes (1×10^7 cells) were prepared as described (Dignam et al., 1983) with slight modification. Cells were harvested, washed twice with ice-cold phosphate-buffered saline and lysed in 400 μl of buffer A (10 mM HEPES, pH 7.9, 10 mM KCl, 2 mM MgCl2, 0.5 mM DTT, 1 mM PMSF, 5 μg/ml aprotinin, 5 μg/ml pepstatin A, and 5 μg/ml leupeptin) containing 0.1% Nonidet P40 for 15 min on ice, vortexed vigorously for 15 s, and centrifuged at 14,000 rpm for 30 s. […]

Structure (SMILES): C=C[C@@]1(C)CC(=O)[C@@H]2[C@@]3(C)CCCC(C)(C)[C@@H]3[C@H](O)[C@H](OC(C)=O)[C@@]2(C)O1 [dideoxyforskolin, 1,9-dideoxyforskolin]
- LPS induced iNOS activity and PKA activity [1]: neither inhibited the LPS induced iNOS activity nor stimulated the PKA activity
- Lignoceric acid β-oxidation [2]: 571.4 ± 39.6 pmol/h/mg protein
- ratios of C26:0/C22:0 and C24:0/C22:0 / level of VLCFA [3]: had no effect on the ratios of C26:0/C22:0 and C24:0/C22:0

Structure (SMILES): COc1cccc(-c2cc(=O)c3ccccc3o2)c1N [PD 98059]
- LPS-induced activation of NF-kβ [4]: inhibits the LPS-induced activation of NF-kB and the induction of iNOS in astrocytes
